# Results published in article PMC4161155 (Journal of Medicinal Chemistry, 2014).
# Key:
# [1] = molecular target: T1, rNTS2 receptor (Rattus norvegicus, UniProt Q63384); assay: NTS2 FLIPR calcium mobilization assay, agonist mode; format: cell-based; details: for agonist behaviour in the NTS2 FLIPR assay (calcium release): CHO cell line stably expressing rNTS2, FLIPR Tetra, pilot study
# T1 sequence (Q63384 1-416): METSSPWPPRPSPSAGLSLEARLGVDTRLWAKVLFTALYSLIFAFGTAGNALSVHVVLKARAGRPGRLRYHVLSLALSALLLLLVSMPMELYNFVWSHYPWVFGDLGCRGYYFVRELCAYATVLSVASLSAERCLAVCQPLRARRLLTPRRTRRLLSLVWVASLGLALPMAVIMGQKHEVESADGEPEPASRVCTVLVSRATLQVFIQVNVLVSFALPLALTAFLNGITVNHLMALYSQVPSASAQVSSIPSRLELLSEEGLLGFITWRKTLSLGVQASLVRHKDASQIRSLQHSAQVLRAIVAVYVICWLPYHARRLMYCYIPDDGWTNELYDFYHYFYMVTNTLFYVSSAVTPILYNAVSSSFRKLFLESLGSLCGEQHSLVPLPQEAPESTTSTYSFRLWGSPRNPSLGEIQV
# [2] = molecular target: T1, rNTS2 receptor; assay: NTS2 FLIPR calcium mobilization assay, antagonist mode; format: cell-based; details: for type of antagonism of 3b in the Ke experiment at NTS2: Ke assays against dose-response curves of control agonist 3b
# [3] = molecular target: NTS1 (Rattus norvegicus, UniProt P20789); assay: NTS1 FLIPR assay; format: cell-based; details: data not shown
# Chain of NTS1 (P20789 whole entry): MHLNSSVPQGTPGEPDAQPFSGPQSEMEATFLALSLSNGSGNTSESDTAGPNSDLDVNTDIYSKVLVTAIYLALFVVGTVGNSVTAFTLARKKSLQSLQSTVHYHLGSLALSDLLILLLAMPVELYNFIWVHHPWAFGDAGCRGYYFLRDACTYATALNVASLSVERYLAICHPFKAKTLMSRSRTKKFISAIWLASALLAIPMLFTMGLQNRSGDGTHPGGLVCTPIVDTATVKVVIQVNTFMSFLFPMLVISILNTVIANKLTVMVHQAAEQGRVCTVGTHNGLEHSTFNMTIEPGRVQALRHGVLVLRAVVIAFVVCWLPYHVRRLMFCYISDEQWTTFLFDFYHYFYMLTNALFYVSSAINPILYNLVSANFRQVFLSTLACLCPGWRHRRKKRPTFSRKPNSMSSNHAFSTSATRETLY
# [4] = molecular target: T1, rNTS2 receptor; assay: Competitive binding assay versus [125I]NT at NTS2; details: ratio of Ki values, versus compound 13
SMILES,agonist behaviour in the NTS2 FLIPR assay (calcium release) [1],type of antagonism of 3b in the Ke experiment at NTS2 [2],activity in the NTS1 FLIPR assay [3],other results
COc1cccc(OC)c1-c1cc(C(=O)NC2(C(=O)O)C3CC4CC(C3)CC2C4)nn1-c1ccc(C(=O)N(C)CCCN(C)C)cc1C(C)C (stereo not shown) [3b],full agonists,,,
"Cc1ccc(S(=O)(=O)Nc2ccc3c(c2)c(C(=O)C(F)(F)F)cn3CC(=O)N[C@@H](CC(C)C)C(=O)O)cc1 [compound 5, N-{[5-{[(4-Methylphenyl)sulfonyl]amino}-3-(trifluoroacetyl)-1H-indol-1-yl]acetyl}-L-leucine]",,insurmountable antagonist activity,Neither of the test compounds (5 or 13) showed activity,"fold more active than 13 in the NTS2 FLIPR assay (antagonist activity) ([2]; ratio of IC50 values, versus compound 13): 90 fold; fold more active than NT in the NTS2 FLIPR assay ([2]; ratio of IC50 values, versus endogenous ligand NT): ~3 fold; fold boost to NTS2 binding affinity versus 13 [4]: 7.5 fold"
COc1cccc(OC)c1-c1cc(C(=O)NC2(C(=O)O)C3CC4CC(C3)CC2C4)nn1-c1ccnc2cc(Cl)ccc12 (stereo not shown) [3a],full agonists,,,
"C[C@@H]1CN([C@H]2CC[C@](C#N)(c3ccc(F)cc3)CC2)CC[C@]1(C(=O)O)c1ccccc1 [Levocabastine, levocabastine]",potent partial agonist activity,,,Emax ([1]; read-out: FLIPR assay NTS2 Emax): 14 to 16%
"Cc1ccc(S(=O)(=O)Nc2ccc3c(ccn3CC(=O)N[C@@H](CC(C)C)C(=O)O)c2)cc1 [compound 13, N-[(5-{[(4-Methylphenyl)sulfonyl]amino}-1H-indol-1-yl)acetyl]-L-leucine]",,insurmountable,Neither of the test compounds (5 or 13) showed activity,activity at NTS1 in library screen ([3]; single concentration 10 μM): no activity at NTS1; NTS2 agonist activity in library screen ([1]; single concentration 10 μM): devoid of NTS2 agonist activity
